Measurements from ChEMBL document CHEMBL2321781, “Synthesis and in vitro antimalarial testing of neocryptolepines: SAR study for improved activity by introduction and modifications of side chains at C2 and C11 on indolo[2,3-b]quinolines” (J Med Chem, 2013).
Active and inactive are the calls of the source. The calls are words filed in the database; no cut-off is given here.

Experiments:
[1] = Selectivity index, ratio of IC50 for rat L6 cells to IC50 for chloroquine-sensitive Plasmodium falciparum NF54; format: toxicity, cell-based; settings: read-out: Ratio IC50
Plasmodium falciparum [2] = test: microbe, parasite or virus in culture; settings: NF54
Description: Antimalarial activity against chloroquine-sensitive Plasmodium falciparum NF54 after 72 hrs by [3H]hypoxanthine incorporation assay

[3] = Toxicity against rat L6 cells after 72 hrs by Alamar blue assay; format: cell-based
[4] = Selectivity index, ratio of IC50 for rat L6 cells to IC50 for chloroquine-resistant Plasmodium falciparum K1; format: toxicity, cell-based; settings: read-out: Ratio IC50
Plasmodium falciparum [5] = test: Antimalarial activity against chloroquine-resistant Plasmodium falciparum K1 after 72 hrs by [3H]hypoxanthine incorporation assay; format: functional, organism-based
Mus musculus = test: Toxicity in Plasmodium berghei ANKA infected Swiss mouse assessed as weight loss at 50 mg/kg, ip qd for 4 days; format: organism-based; parameters: dose 50 mg/kg, route intraperitoneal; settings: in vivo, 96 h
[6] = system: Trypanosoma brucei rhodesiense; test: Antiparasitic activity against Trypanosoma brucei rhodesiense STIB900 bloodstream forms incubated for 70 hrs by Alamar blue assay; format: functional, organism-based; settings: STIB900, 70 h
Leishmania donovani = test: Antiparasitic activity against Leishmania donovani MHOM/ET/67/L82 axenic amastigotes after 70 hrs by Alamar blue assay; format: functional, organism-based; settings: MHOM/ET/67/L82, 70 h
Trypanosoma cruzi = test: Antiparasitic activity against Trypanosoma cruzi Tulahuen C2C4 expressing beta-galactosidase infected in rat L6 cells after 96 hrs; format: functional, organism-based; settings: Tulahuen C2C4, L6, 96 h
Plasmodium berghei = test: Antimalarial activity against Plasmodium berghei ANKA infected in Swiss mouse assessed as reduction parasitaemia at 50 mg/kg, ip qd for 4 days measured 24 hrs after last treatment; format: functional; parameters: scale not given: the % may be the effect or the level left

Compound | selectivity ratio [1] | IC50 (Plasmodium falciparum [2]) [nM] | IC50 at 72 h [3] [nM] | selectivity ratio [4] | IC50 (Plasmodium falciparum [5]) [nM] | Activity (Mus musculus) | IC50 [6] [nM] | IC50 (Leishmania donovani) [nM] | IC50 (Trypanosoma cruzi) [nM] | Activity (Plasmodium berghei; route intraperitoneal) [%] | Activity (Plasmodium berghei)
Cn1c2nc3ccccc3c-2c(NCCCN2C(=O)CSC2c2ccc(Cl)cc2)c2ccccc21 (stereo unspecified) | 54.4 | 63.9 | 3470 | 24.2 | 144 |  |  |  |  |  | 
Cn1c2nc3ccccc3c-2c(NCCCNC(=O)Nc2ccccc2)c2ccccc21 | 58.4 | 21.3 | 1240 | 132 | 9.4 | Toxic | 607 | 97500 | 10600 | 22.1 | 
Cn1c2nc3ccccc3c-2cc2ccccc21 [NEOCRYPTOLEPINE] | 2 | 1580 | 3190 | 1.9 | 1700 |  |  |  |  |  | 
Cn1c2nc3ccccc3c-2c(NCCCN2C(=O)c3ccccc3SC2c2ccc(Cl)cc2)c2ccccc21 (stereo unspecified) | 41.3 | 26.6 | 1100 | 51.6 | 21.3 |  | 868 | 9750 | 2360 |  | 
C[C@@H]1CC[C@H]2[C@@H](C)C(=O)O[C@@H]3O[C@@]4(C)CC[C@@H]1[C@]32OO4 [ARTEMISININ] |  | 4.3 |  |  | 2.8 |  |  |  |  |  | 
Cn1c2nc3ccccc3c-2c(NCCCNC(=O)Nc2ccccc2)c2cc(C(F)(F)F)ccc21 | 313 | 4.1 | 1280 | 26.3 | 48.8 |  |  |  |  |  | 
COc1ccc2c(c1)c(NCCCN)c1c3ccccc3nc-1n2C | 5.1 | 74.8 | 383 |  |  |  |  |  |  |  | 
Cn1c2nc3ccccc3c-2c(NCCCN)c2cc(F)ccc21 | 6.8 | 49.6 | 338 |  |  |  |  |  |  |  | 
Cn1c2nc3ccccc3c-2c(NCCCN2C(=O)CCSC2c2ccc(F)cc2)c2ccccc21 (stereo unspecified) | 71.6 | 38.1 | 2730 | 24.3 | 112 |  |  |  |  |  | 
Cn1c2nc3ccccc3c-2c(NCCCNC(=O)c2cccs2)c2ccccc21 | 17.3 | 258 | 4460 |  |  |  |  |  |  |  | 
COc1ccc2c(c1)c(NCCCNC(=O)Nc1ccccc1)c1c3ccccc3nc-1n2C | 621 | 4.4 | 2730 | 1240 | 2.2 |  |  |  |  |  | 
Cn1c2nc3ccccc3c-2c(NCCCCCCN)c2ccccc21 | 7.1 | 98.1 | 693 |  |  |  |  |  |  |  | 
CCCCNC(=O)NCCCNc1c2c3ccccc3nc-2n(C)c2ccccc12 | 16.7 | 104 | 1740 |  |  |  |  |  |  |  | 
Cn1c2nc3ccccc3c-2c(NCCCN)c2cc(C(F)(F)F)ccc21 | 86.3 | 10.7 | 924 |  |  |  |  |  |  |  | 
Cn1c2nc3ccccc3c-2c(NCCCNC(=S)Nc2ccccc2)c2ccccc21 | 135 | 9.1 | 1230 | 11 | 112 | Toxic | 589 | 79200 | 6120 | 15.4 | 
Cn1c2nc3ccccc3c-2c(NCCCN)c2ccccc21 | 3.5 | 78.8 | 279 | 9.4 | 29.6 |  |  |  |  |  | 

Compound | selectivity ratio [1] | IC50 (Plasmodium falciparum [2]) [nM] | IC50 at 72 h [3] [nM] | selectivity ratio [4] | IC50 (Plasmodium falciparum [5]) [nM] | Activity (Mus musculus) | IC50 [6] [nM] | IC50 (Leishmania donovani) [nM] | IC50 (Trypanosoma cruzi) [nM] | Activity (Plasmodium berghei; route intraperitoneal) [%] | Activity (Plasmodium berghei)
Cn1c2nc3ccccc3c-2c(NCCCN)c2cc(Br)ccc21 | 24.8 | 10.4 | 258 |  |  |  |  |  |  |  | 
Cn1c2nc3ccccc3c-2c(NCCCNS(=O)(=O)c2ccc3ccccc3c2)c2ccccc21 | 1.3 | 14.2 | 18.2 |  |  |  |  |  |  |  | 
Cn1c2nc3ccccc3c-2c(NCCCN)c2cc([N+](=O)[O-])ccc21 | 18.3 | 11.4 | 209 |  |  |  |  |  |  |  | 
Cn1c2nc3ccccc3c-2c(NCCCNC(=O)Nc2ccccc2)c2cc([N+](=O)[O-])ccc21 | 1300 | 2.1 | 2730 | 91.4 | 29.9 |  |  |  |  |  | 
Cn1c2nc3ccccc3c-2c(NCCCN)c2cc(Cl)ccc21 | 22.8 | 11.8 | 269 |  |  |  |  |  |  |  | 
Cn1c2nc3ccccc3c-2c(NCCCNC(=O)Nc2ccccc2)c2cc(Br)ccc21 | 706 | 4 | 2830 | 238 | 11.9 |  |  |  |  |  | 
CN(C)c1ccc(C2SCC(=O)N2CCCNc2c3c4ccccc4nc-3n(C)c3ccccc23)cc1 (stereo unspecified) | 64.7 | 54.9 | 3550 | 24.8 | 143 |  | 1370 | 26100 | 2730 |  | 
Cn1c2nc3ccccc3c-2c(NCCCNS(=O)(=O)c2ccccc2)c2ccccc21 | 1 | 63 | 65.2 | 0.5 | 124 |  | 164 | 58000 | 1600 |  | 
Cn1c2nc3ccccc3c-2c(NCCCNC(=O)Nc2ccccc2)c2cc(F)ccc21 | 143 | 24.9 | 3560 | 11.4 | 313 |  |  |  |  |  | 
Cn1c2nc3ccccc3c-2c(Cl)c2ccccc21 [11-CHLORONEOCRYPTOLEPINE] | 0.7 | 2060 | 1460 | 0.7 | 2000 |  |  |  |  |  | 
Cn1c2nc3ccccc3c-2c(NCCCNC(=O)Nc2ccccc2)c2cc(Cl)ccc21 | 1400 | 2.2 | 3080 | 141 | 21.8 | Toxic |  |  |  |  | inactive
O=C(Cn1ccnc1[N+](=O)[O-])NCc1ccccc1 [BENZNIDAZOLE] |  |  |  |  |  |  |  |  | 1610 |  | 
CCCCCCCCCCCCCCCCOP(=O)([O-])OCC[N+](C)(C)C [MILTEFOSINE] |  |  |  |  |  |  |  | 361 |  |  | 
Cn1c2nc3ccccc3c-2c(NCCCN2C(=O)CCSC2c2ccc(Cl)cc2)c2ccccc21 (stereo unspecified) | 64.1 | 52.4 | 3360 | 86.6 | 38.8 |  | 548 | 13000 | 3180 |  | 
Cn1c2nc3ccccc3c-2c(NCCCCCCNC(=O)Nc2ccccc2)c2ccccc21 | 15.4 | 25.8 | 397 |  |  |  |  |  |  |  | 
